From the supplement of paper PMC8671470

Key:
Details in all cases: 72 h
BV-173 [1] = system: BV-173
Summary of the method: (§1)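 Fifteen myeloid leukaemia cell lines were seeded in RPMI 1640 at a density titrated to the linear growth range. Each line went into 384-well plates with compounds acoustically pre-printed at five tenfold doses from 1 to 10,000 nM, in duplicate, and was incubated for 72 h at 37 °C with 5% CO2. Luminescent ATP viability was normalised to vehicle and to a positive control at 10 µM. The IC50 came from four-parameter log-logistic dose–response fits.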

HEL [2] = system: HEL
Summary of the method: as §1

HL-60 [3] = system: HL-60
Summary of the method: as §1

K-562 [4] = system: K-562
Summary of the method: as §1

KCL-22 [5] = system: KCL-22
Summary of the method: as §1

KG-1 = system: KG-1
Summary of the method: as §1

KU-812 [6] = system: KU-812
Summary of the method: as §1

LAMA-84 [7] = system: LAMA-84
Summary of the method: as §1

ML-2 [8] = system: ML-2
Summary of the method: as §1

MOLM-13 = system: MOLM-13
Summary of the method: as §1

MV4-11 = system: MV4-11
Summary of the method: as §1

Mono-Mac-6 [9] = system: Mono-Mac-6
Summary of the method: as §1

NOMO-1 [10] = system: NOMO-1
Summary of the method: as §1

SHI-1 [11] = system: SHI-1
Summary of the method: as §1

THP-1 = system: THP-1
Summary of the method: as §1

HL-60 [12] = experiment: cell viability (% survival relative to DMSO control); higher = less cytotoxic
Summary of the method: (§2)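 A rescreen of the full library used HL-60 cells in RPMI 1640 with 10% FBS on 384-well plates, run in duplicate at five tenfold concentrations (1–10,000 nM). Each screen included DMSO or 100 nM of one of three metabolic inhibitors and ran 72 h at 37 °C, 5% CO2. CellTiter-Glo viability was scaled between DMSO and 10 μM proteasome-inhibitor wells. Any area under the curve comes from four-parameter log-logistic fits with drc and PharmacoGx.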

BV-173 [13] = experiment: cell viability (% survival relative to DMSO control, bortezomib = 0%); higher = less cytotoxic
Summary of the method: (§3)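 Seeding density for each of the 10 AML and 5 CML cell lines was titrated to the linear growth range. Cells went into 384-well plates pre-printed in duplicate with compounds at 1, 10, 100, 1000 or 10000 nM and were held for 72 h at 37 °C with 5% CO2. CellTiter-Glo luminescence then provided the readout. Percent survival is expressed relative to vehicle at 100% and a 10 µM positive control at 0%, averaged over duplicates.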

HEL [14] = experiment: as above
Summary of the method: as §3

HL-60 [15] = experiment: as above
Summary of the method: as §3

K-562 [16] = experiment: as above
Summary of the method: as §3

KCL-22 [17] = experiment: as above
Summary of the method: as §3

KU-812 [18] = experiment: as above
Summary of the method: as §3

LAMA-84 [19] = experiment: as above
Summary of the method: as §3

ML-2 [20] = experiment: as above
Summary of the method: as §3

Mono-Mac-6 [21] = experiment: as above
Summary of the method: as §3

NOMO-1 [22] = experiment: as above
Summary of the method: as §3

SHI-1 [23] = experiment: as above
Summary of the method: as §3

HL-60 [24] = experiment: area under dose-response curve (viability, 1 nM-10 uM) (fraction (0-1)); higher = more sensitive
Summary of the method: as §2

Cc1c(-c2ccc(-c3ccccc3F)cc2)nc2ccc(F)cc2c1C(=O)O [Brequinar]
Details	IC50 (cell viability) [µM]
BV-173 [1]	7.19
HEL [2]	1.48
HL-60 [3]	6.09
K-562 [4]	8.59
KCL-22 [5]	0.94
KG-1	> 10
KU-812 [6]	> 10
LAMA-84 [7]	9.69
ML-2 [8]	8.46
MOLM-13	4.34
MV4-11	7.76
Mono-Mac-6 [9]	> 10
NOMO-1 [10]	> 10
SHI-1 [11]	> 10
THP-1	> 10

cell viability [%], HL-60 [12]
Details	0.001 µM	0.01 µM	0.1 µM	1 µM	10 µM
co-treatment: AZD3965 100 nM	98.8	99.3	78.9	84.4	68.2
co-treatment: DMSO vehicle	99.9	98.8	81.4	87.8	81.3
co-treatment: GSK2194069 100 nM	96.8	103	84.9	86.9	76.8
co-treatment: pictilisib 100 nM	91.4	101	86.8	87.3	93

Details	area under dose-response curve, co-treatment: pictilisib 100 nM	cell viability, 1 nM [%]	cell viability, 10 nM [%]	cell viability, 100 nM [%]	cell viability, 1000 nM [%]	cell viability, 10000 nM [%]
BV-173 [13]	–	94.7	90.3	93.3	118	32.2
HEL [14]	–	101	99.2	102	69	27.8
HL-60 [15]	–	98.5	95.8	93.2	82.7	50
HL-60 [24]	< 0.0301	–	–	–	–	–
K-562 [16]	–	98.1	89.2	92.9	103	40.4
KCL-22 [17]	–	101	94.3	97.9	56.3	29.2
KU-812 [18]	–	87.2	95.4	93.1	100	80.8
LAMA-84 [19]	–	97.3	98.2	94.2	102	47.4
ML-2 [20]	–	97.2	98.2	88.9	107	40.3
Mono-Mac-6 [21]	–	103	95.9	97.9	91.9	50.2
NOMO-1 [22]	–	97.3	95.3	104	104	89.5
SHI-1 [23]	–	85.3	99	103	111	63.9

O=C1O/C(=C/Br)CCC1c1cccc2ccccc12 (centres undefined) [Bromoenol Lactone]
Details	IC50 (cell viability) [µM]
BV-173 [1]	4.15
HEL [2]	8.39
HL-60 [3]	> 10
K-562 [4]	9.03
KCL-22 [5]	7.07
KG-1	8.59
KU-812 [6]	5.18
LAMA-84 [7]	> 10
ML-2 [8]	> 10
MOLM-13	5.36
MV4-11	5.73
Mono-Mac-6 [9]	> 10
NOMO-1 [10]	3.55
SHI-1 [11]	> 10
THP-1	4.53

cell viability [%], HL-60 [12]
Details	0.001 µM	0.01 µM	0.1 µM	1 µM	10 µM
co-treatment: AZD3965 100 nM	95.1	97	98.2	96.796	93.5
co-treatment: DMSO vehicle	100	99.8	100	96.4	87.9
co-treatment: GSK2194069 100 nM	90.2	92.4	108	89.2	115
co-treatment: pictilisib 100 nM	96.5	106	110	101.3	104

Details	area under dose-response curve, co-treatment: AZD3965 100 nM	area under dose-response curve, co-treatment: DMSO vehicle	area under dose-response curve, co-treatment: GSK2194069 100 nM	area under dose-response curve, co-treatment: pictilisib 100 nM	cell viability, 1 nM [%]	cell viability, 10 nM [%]	cell viability, 100 nM [%]	cell viability, 1000 nM [%]	cell viability, 10000 nM [%]
BV-173 [13]	–	–	–	–	98.1	104	94.8	85.9	24.3
HEL [14]	–	–	–	–	105	103	91.3	99.8	41.3
HL-60 [15]	–	–	–	–	100	101	144	90.7	77.2
HL-60 [24]	< 0.0301	< 0.0301	< 0.0301	< 0.0301	–	–	–	–	–
K-562 [16]	–	–	–	–	102	106	98.1	93.5	46.9
KCL-22 [17]	–	–	–	–	95.3	93.1	104	86.6	52.2
KU-812 [18]	–	–	–	–	98.3	93.3	102	86.1	45.8
LAMA-84 [19]	–	–	–	–	101	99.2	99.9	95.9	74
ML-2 [20]	–	–	–	–	102	100	94.6	92.9	59.7
Mono-Mac-6 [21]	–	–	–	–	98.4	102	93.8	95.6	52.7
NOMO-1 [22]	–	–	–	–	108	100	100	82.7	40.4
SHI-1 [23]	–	–	–	–	102	92.9	108	91.2	83.2

O=C(O)CCCCC(CCSCc1ccccc1)SCc1ccccc1 (centres undefined) [CPI-613]
Details	IC50 (cell viability) [µM]
BV-173 [1]	> 10
HEL [2]	> 10
HL-60 [3]	> 10
K-562 [4]	> 10
KCL-22 [5]	> 10
KG-1	> 10
KU-812 [6]	> 10
LAMA-84 [7]	> 10
ML-2 [8]	> 10
MOLM-13	> 10
MV4-11	> 10
Mono-Mac-6 [9]	> 10
NOMO-1 [10]	> 10
SHI-1 [11]	> 10
THP-1	> 10

cell viability [%], HL-60 [12]
Details	0.001 µM	0.01 µM	0.1 µM	1 µM	10 µM
co-treatment: AZD3965 100 nM	102	97.3	98.6	104	105
co-treatment: DMSO vehicle	98.6	101	95.2	103	108
co-treatment: GSK2194069 100 nM	97.55	101	89.4	104	107.3
co-treatment: pictilisib 100 nM	105	98.8	88.5	103	107

Details	area under dose-response curve, co-treatment: AZD3965 100 nM	area under dose-response curve, co-treatment: DMSO vehicle	area under dose-response curve, co-treatment: GSK2194069 100 nM	area under dose-response curve, co-treatment: pictilisib 100 nM	cell viability, 1 nM [%]	cell viability, 10 nM [%]	cell viability, 100 nM [%]	cell viability, 1000 nM [%]	cell viability, 10000 nM [%]
BV-173 [13]	–	–	–	–	89	97.3	91.1	94.4	93.8
HEL [14]	–	–	–	–	109	91	106	103	73.8
HL-60 [15]	–	–	–	–	107	111	110	87.9	101
HL-60 [24]	< 0.0301	< 0.0301	< 0.0301	< 0.0301	–	–	–	–	–
K-562 [16]	–	–	–	–	94	90.4	102	89.2	107
KCL-22 [17]	–	–	–	–	110	108	105	115	97.2
KU-812 [18]	–	–	–	–	98.9	94.3	99.6	105	89.7
LAMA-84 [19]	–	–	–	–	106	98.3	96.5	96.8	97.5
ML-2 [20]	–	–	–	–	89.7	94.3	103	98.2	95.8
Mono-Mac-6 [21]	–	–	–	–	92.8	86.9	96.3	94.2	96.3
NOMO-1 [22]	–	–	–	–	101	95.2	98.2	100	97.2
SHI-1 [23]	–	–	–	–	89.9	110	108	95.8	107
